# Target: T1, human PI3Kalpha p110 catalytic subunit (Rat-1 pBABEpuro Myr-HA-hp110alpha) (Homo sapiens, UniProt P42336)
# T1 construct: Myr (myristoylation signal) (N); HA (N); expressed in transfected cells; host or cells: Rat-1
# Experiment: Cellular assay PI3Kalpha (p-Akt(S473) SureFire, Rat-1_PI3Kalpha cells)
# Assay type: cell-based
# Conditions: 1 h compound treatment, read-out: Rat1-PI3Ka/ IC50
# From the text: AlphaScreen (Amplified Luminescent Proximity Homogeneous Assay, ALPHA, Perkin Elmer) is a non-radioactive bead-based proximity assay technology to study biomolecular interactions in a homogenous microtiter plate format. The brand name SureFire denotes AlphaScreen assays that are adapted to quantify the phosphorylation of endogenous cellular proteins in cell lysates, by using matched antibody pairs, which consist of an anti-phospho-kinase and an anti-kinase antibody. The assay allows characterization of kinase signaling in cells as well as measurement of kinase inhibitor effects. The AlphaScreen technology provides several advantages over standard assay techniques such as ELISA, as it avoids time-consuming washing procedures and reduces plate handling. Furthermore, it is miniaturizable at least to a 384-well format and provides sensitivity down to the femtomolar range, dependent on the affinity of the antibodies included in the individual AlphaScreen SureFire assay kit. High sensitivity is reached by an intrinsic amplification mechanism, which involves production of singlet oxygen molecules. SureFire assay kits are commercially available for specific targets and include pairs of validated antibodies (PerkinElmer). This report describes common procedures applied for AlphaScreen SureFire assays and respective semi-automated steps for routine kinase inhibitor profiling in cell-based assays.
# The Rat-1 cell lines stably overexpressing activated PI3K class I isoforms Rat-1 pBABEpuro Myr-HA-hp110 delta (Rat-1_PI3Kdelta) and Rat-1 pBABEpuro Myr-HA-hp110alpha (Rat-1_PI3Kalpha) and Rat-1 pBABEpuro Myr-HA-hp110 beta (Rat-1_PI3beta) were prepared as described (Maira S M, Stauffer F, Brueggen J, Furet P, Schnell C, Fritsch C, Brachmann S, Chène P, de Pover A, Schoemaker K, Fabbro D, Gabriel D, Simonen M, Murphy L, Finan P, Sellers W, García-Echeverría C (2008), Mol Cancer Ther. 7:1851-63 and Maira S M, Pecchi S, Brueggen J, Huh K, Schnell C, Fritsch C, Nagel T, Wiesmann M, Brachmann S, Dorsch M, Chène P, Schoemaker K, De Pover A, Menezes D, Fabbro D, Sellers W, García-Echeverría C, Voliva C F (2011), Mol. Cancer Ther., accepted). All cell lines were cultivated in complete growth medium (DMEM high glucose, 10% (v/v) fetal bovine serum, 1% (v/v) MEM NEAA, 10 mM HEPES, 2 mM L-glutamine, puromycin (10 μg/mL for Rat-1_PI3Kdelta and Rat-1_PI3Kalpha, 4 ug/mL for Rat-1_PI3beta), 1% (v/v) Pen/Strep) to 90% confluency at 37° C./5% CO2/90% humidity in a humidified CO2 incubator and were split twice a week.
# The following materials were used for p-AKT(S473) detection in Rat-1 cell lysates: Dulbecco's modified Eagle's medium (DMEM) high glucose (Gibco Invitrogen, Basel, Switzerland, Cat. No. 41965), Heat Inactivated Fetal Bovine Serum, Qualified (HI FBS; Gibco Invitrogen, Basel, Switzerland, Lot. No. 16140), MEM non essential amino acids (NEAA; Gibco Invitrogen, Basel, Switzerland, Cat. No. 11140), HEPES (Gibco Invitrogen, Basel, Switzerland, Cat. No. 15630), Penicillin/Streptomycin (Pen/Strep, 100×; Gibco Invitrogen, Basel, Switzerland, Cat. No. 15140-122), L-Glutamine (Gibco Invitrogen, Basel, Switzerland, Cat. No. 25030), Puromycin (Sigma Aldrich, Buchs, Switzerland, Cat. No. P9620), DMSO (MERCK, Dietikon, Switzerland, Cat. No. 8.02912.2500), H2O, MilliQ-H2O unless otherwise stated (MILLIPORE QGARDOOR1, Millipore, Zug, Switzerland), Bovine serum albumine (BSA; Sigma Aldrich, Buchs, Switzerland Cat. No. A8412), SureFire p-Akt 1/2 (Ser473) Assay Kit (PerkinElmer, Schwerzenbach, Switzerland, Cat. No. TGRAS50K).
# The p-Akt(S473) SureFire assay measures the phosphorylation of endogenous cellular Akt 1/2 at Ser473 in cell lysates. Using Rat-1 cells stably expressing myr-HA-tagged versions of the human PI3Kdelta, PI3Kalpha, or PI3Kbeta p110 catalytic subunit isoforms, the assay was developed as a two-plate protocol in a 384-well format.
# T1 sequence (P42336 whole entry): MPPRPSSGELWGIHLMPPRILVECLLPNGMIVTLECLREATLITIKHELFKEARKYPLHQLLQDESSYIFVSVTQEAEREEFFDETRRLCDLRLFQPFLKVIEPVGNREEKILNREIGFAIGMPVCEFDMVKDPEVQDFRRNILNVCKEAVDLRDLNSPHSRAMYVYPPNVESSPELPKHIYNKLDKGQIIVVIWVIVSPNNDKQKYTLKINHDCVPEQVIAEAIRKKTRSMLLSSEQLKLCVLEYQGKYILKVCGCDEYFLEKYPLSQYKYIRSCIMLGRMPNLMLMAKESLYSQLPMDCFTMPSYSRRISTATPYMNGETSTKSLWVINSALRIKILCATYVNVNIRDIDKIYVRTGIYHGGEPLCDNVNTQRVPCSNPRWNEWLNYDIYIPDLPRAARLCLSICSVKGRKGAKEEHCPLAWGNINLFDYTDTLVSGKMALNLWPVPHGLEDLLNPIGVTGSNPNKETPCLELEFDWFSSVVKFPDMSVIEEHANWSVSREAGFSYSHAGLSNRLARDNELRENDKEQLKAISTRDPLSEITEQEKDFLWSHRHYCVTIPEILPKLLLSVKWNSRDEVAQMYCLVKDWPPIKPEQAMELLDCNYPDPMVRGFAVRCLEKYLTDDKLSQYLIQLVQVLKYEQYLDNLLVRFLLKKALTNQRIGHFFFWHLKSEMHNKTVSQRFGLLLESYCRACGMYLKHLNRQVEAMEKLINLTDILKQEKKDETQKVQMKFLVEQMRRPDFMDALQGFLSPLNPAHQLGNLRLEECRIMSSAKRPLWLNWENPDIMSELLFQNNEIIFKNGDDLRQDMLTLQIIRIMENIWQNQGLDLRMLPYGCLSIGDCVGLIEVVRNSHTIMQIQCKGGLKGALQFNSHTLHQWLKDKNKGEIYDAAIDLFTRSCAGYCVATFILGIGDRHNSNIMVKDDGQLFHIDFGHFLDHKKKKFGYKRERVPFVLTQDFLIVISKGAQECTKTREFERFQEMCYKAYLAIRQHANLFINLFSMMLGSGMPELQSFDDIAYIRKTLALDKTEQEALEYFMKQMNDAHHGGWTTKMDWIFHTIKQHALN
# T1 sequence (Q63787 whole entry partner): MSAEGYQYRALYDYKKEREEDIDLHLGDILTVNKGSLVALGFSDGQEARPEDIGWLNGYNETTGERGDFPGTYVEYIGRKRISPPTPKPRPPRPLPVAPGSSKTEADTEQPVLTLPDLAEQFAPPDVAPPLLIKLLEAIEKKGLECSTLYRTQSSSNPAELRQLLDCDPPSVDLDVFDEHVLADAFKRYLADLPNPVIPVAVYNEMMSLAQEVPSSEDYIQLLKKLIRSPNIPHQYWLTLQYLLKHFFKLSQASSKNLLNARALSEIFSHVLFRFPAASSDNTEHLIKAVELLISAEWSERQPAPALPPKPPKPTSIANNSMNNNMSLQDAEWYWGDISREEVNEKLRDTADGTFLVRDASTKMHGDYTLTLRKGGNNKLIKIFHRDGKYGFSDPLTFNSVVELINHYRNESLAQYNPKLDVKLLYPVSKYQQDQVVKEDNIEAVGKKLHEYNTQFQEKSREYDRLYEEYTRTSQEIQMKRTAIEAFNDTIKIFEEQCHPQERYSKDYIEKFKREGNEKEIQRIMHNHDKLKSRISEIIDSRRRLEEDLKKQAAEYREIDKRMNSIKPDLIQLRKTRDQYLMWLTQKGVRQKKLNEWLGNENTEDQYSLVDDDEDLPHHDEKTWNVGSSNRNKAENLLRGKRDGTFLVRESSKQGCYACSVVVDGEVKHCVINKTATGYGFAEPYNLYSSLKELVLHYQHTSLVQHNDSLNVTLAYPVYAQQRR
row,IC50 [nM],SMILES
1,113,"C[C@H]1OC(=O)N(c2cc(-c3cnc(N)nc3C(F)(F)F)nc(N3CCOCC3)n2)[C@H]1COC=O [Example 12, Formic acid (4S,5R)-3-(2′-amino-2-morpholin-4-yl-4′-trifluoromethyl-[4,5′]bipyrimidinyl-6-yl)-5-methyl-2-oxo-oxazolidin-4-ylmethyl ester]"
2,48,"C[C@H]1COC(=O)N1c1cc(-c2cnc(N)nc2C(F)(F)F)nc(N2CCOCC2)n1 [Example 1, (S)-3-(2′-Amino-2-morpholin-4-yl-4′-trifluoromethyl-[4,5′]bipyrimidinyl-6-yl)-4-methyl-oxazolidin-2-one]"
3,148,"Nc1ncc(-c2cc(N3C(=O)OC4C(O)CCC43)nc(N3CCOCC3)n2)c(C(F)(F)F)n1 (single isomer, unassigned) [Example 22B]"
4,134,"CC1(C)OC(=O)N(c2cc(-c3cnc(N)nc3C(F)(F)F)nc(N3CCOCC3)n2)[C@H]1CO [Example 2, (S)-3-(2′-Amino-2-morpholin-4-yl-4′-trifluoromethyl-[4,5′]bipyrimidinyl-6-yl)-4-hydroxymethyl-5,5-dimethyl-oxazolidin-2-one]"
5,81,[2H]C1([2H])OC([2H])([2H])C([2H])([2H])N(c2nc(-c3cnc(N)nc3C(F)(F)F)cc(N3C(=O)O[C@H](C)[C@@H]3CO)n2)C1([2H])[2H] [Example 8]
6,277,"Nc1ncc(-c2cc(N3C[C@@H](CO)OC3=O)nc(N3CCOCC3)n2)c(C(F)(F)F)n1 [Example 14, (S)-3-(2′-Amino-2-morpholin-4-yl-4′-trifluoromethyl-[4,5′]bipyrimidinyl-6-yl)-5-hydroxymethyl-oxazolidin-2-one]"
7,178,"[2H]C1([2H])OC([2H])([2H])C([2H])([2H])N(c2nc(-c3cnc(N)nc3C(F)(F)F)cc(N3C(=O)OC[C@@H]3C)n2)C1([2H])[2H] [Example 17, (S)-3-(2′-amino-2-D8-morpholino-4′-(trifluoromethyl)-[4,5′-bipyrimidin]-6-yl)-4-methyloxazolidin-2-one]"
8,58,"C[C@H]1C(CC(C)(C)O)OC(=O)N1c1cc(-c2cnc(N)nc2C(F)(F)F)nc(N2CCOCC2)n1 (mixture of isomers) [Example 26, (4S,5R)- and (4S,5S)-3-(2′-amino-2-morpholino-4′-(trifluoromethyl)-[4,5′-bipyrimidin]-6-yl)-5-(2-hydroxy-2-methylpropyl)-4-methyloxazolidin-2-one]"
9,38,"C[C@H]1OC(=O)N(c2cc(-c3cnc(N)nc3C(F)(F)F)nc(N3CCOCC3)n2)[C@H]1CO [Example 18, (4S,5R)-3-(2′-Amino-2-morpholin-4-yl-4′-trifluoromethyl-[4,5′]bipyrimidinyl-6-yl)-4-hydroxymethyl-5-methyl-oxazolidin-2-one]"
10,85,"Nc1ncc(-c2cc(N3C(=O)O[C@H]4COC[C@H]43)nc(N3CCOCC3)n2)c(C(F)(F)F)n1 [Example 21, (3aR,6aR)-3-(2′-amino-2-morpholino-4′-(trifluoromethyl)-[4,5′-bipyrimidin]-6-yl)-tetrahydrofuro[3,4-d]oxazol-2(3H)-one]"
11,256,"Nc1ncc(-c2cc(N3CCOC3=O)nc(N3CCOCC3)n2)c(C(F)(F)F)n1 [Example 11, 3-(2′-Amino-2-morpholin-4-yl-4′-trifluoromethyl-[4,5′]bipyrimidinyl-6-yl)-oxazolidin-2-one, reference compound]"
12,94,C[C@@H]1OC(=O)N(c2cc(-c3cnc(N)nc3C(F)(F)F)nc(N3CCOCC3)n2)[C@H]1CO [Example 6]
13,20,"C[C@H]1[C@@H](CCO)OC(=O)N1c1cc(-c2cnc(N)nc2C(F)(F)F)nc(N2CCOCC2)n1 [Example 23, (4S,5R)-3-(2′-Amino-2-morpholino-4′-(trifluoromethyl)-[4,5′-bipyrimidin]-6-yl)-5-(2-hydroxyethyl)-4-methyloxazolidin-2-one]"
14,108,"C[C@H]1CN(c2cc(-c3cnc(N)nc3C(F)(F)F)nc(N3CCOCC3)n2)C(=O)O1 [Example 16, (S)-3-(2′-Amino-2-morpholin-4-yl-4′-trifluoromethyl-[4,5′]bipyrimidinyl-6-yl)-5-methyl-oxazolidin-2-one]"
15,86,"Nc1ncc(-c2cc(N3C(=O)OC4C(O)CCC43)nc(N3CCOCC3)n2)c(C(F)(F)F)n1 (single isomer, unassigned) [Example 22A]"
16,31,"Nc1ncc(-c2cc(N3C(=O)O[C@H]4CCCC[C@@H]43)nc(N3CCOCC3)n2)c(C(F)(F)F)n1 [Example 4, (3aS,7aS)-3-(2′-Amino-2-morpholin-4-yl-4′-trifluoromethyl-[4,5′]bipyrimidinyl-6-yl)-hexahydro-benzooxazol-2-one]"
17,147,"CC1(CO)COC(=O)N1c1cc(-c2cnc(N)nc2C(F)(F)F)nc(N2CCOCC2)n1 (racemic) [Example 3, 3-(2′-amino-2-morpholino-4′-(trifluoromethyl)-4,5′-bipyrimidin-6-yl)-4-(hydroxymethyl)-4-methyloxazolidin-2-one]"
18,50,"C[C@H]1[C@@H](CO)OC(=O)N1c1cc(-c2cnc(N)nc2C(F)(F)F)nc(N2CCOCC2)n1 [Example 19, (4S,5S)-3-(2′-Amino-2-morpholin-4-yl-4′-trifluoromethyl-[4,5′]bipyrimidinyl-6-yl)-5-hydroxymethyl-4-methyl-oxazolidin-2-one]"
19,45,"C[C@@H](O)C[C@H]1OC(=O)N(c2cc(-c3cnc(N)nc3C(F)(F)F)nc(N3CCOCC3)n2)[C@H]1C (single isomer, unassigned) [Example 24]"
20,45,"C[C@H](O)CC1OC(=O)N(c2cc(-c3cnc(N)nc3C(F)(F)F)nc(N3CCOCC3)n2)[C@H]1C (single isomer, unassigned) [Example 25]"
21,79,"C[C@H]1[C@H](CO)OC(=O)N1c1cc(-c2cnc(N)nc2C(F)(F)F)nc(N2CCOCC2)n1 [Example 15, (4S,5R)-3-(2′-Amino-2-morpholin-4-yl-4′-trifluoromethyl-[4,5′]bipyrimidinyl-6-yl)-5-hydroxymethyl-4-methyl-oxazolidin-2-one]"
22,147,"Nc1ncc(-c2cc(N3C(=O)OC[C@@H]3CCO)nc(N3CCOCC3)n2)c(C(F)(F)F)n1 [Example 9, (S)-3-(2′-Amino-2-morpholin-4-yl-4′-trifluoromethyl-[4,5′]bipyrimidinyl-6-yl)-4-(2-hydroxy-ethyl)-oxazolidin-2-one]"
23,93,"COC[C@H]1COC(=O)N1c1cc(-c2cnc(N)nc2C(F)(F)F)nc(N2CCOCC2)n1 [Example 5, (S)-3-(2′-Amino-2-morpholin-4-yl-4′-trifluoromethyl-[4,5′]bipyrimidinyl-6-yl)-4-methoxymethyl-oxazolidin-2-one]"
24,95,"Nc1ncc(-c2cc(N3C(=O)O[C@@H]4[C@@H](O)CC[C@@H]43)nc(N3CCOCC3)n2)c(C(F)(F)F)n1 (racemic) [Example 22, (3aR*,6R*,6aR*)-3-(2′-Amino-2-morpholino-4′-(trifluoromethyl)-[4,5′-bipyrimidin]-6-yl)-6-hydroxyhexahydro-2H-cyclopenta[d]oxazol-2-one]"
25,58,"C[C@H]1COCCN1c1nc(-c2cnc(N)nc2C(F)(F)F)cc(N2C(=O)OC[C@@H]2C)n1 [Example 13, (S)-3-[2′-Amino-2-((S)-3-methyl-morpholin-4-yl)-4′-trifluoromethyl-[4,5′]bipyrimidinyl-6-yl]-4-methyl-oxazolidin-2-one]"
